Usually melting point stands for the temperature of the solid-liquid transition.

The record followed here is a melting point compilation (Tetko et al.; mined from patent text by program, amines drawn as free bases though some values may be those of a salt).

The molecule `CC(C)(C)OC(=O)N1CCC(CC(O)c2c3c(nn2-c2ccccc2)c(=O)[nH]c2ccccc23)CC1` (stereo unspecified) gave a melting point of 253 to 254 °C.
For `CC(C)OC1(c2ccc(Cl)cc2)OC(c2ccncc2)=Nc2ccccc21` (stereo unspecified) the value was 114 to 115 °C; for `CC(C)C[C@@H](C(=O)O)n1sc2ccc(F)cc2c1=O`, 161 to 162 °C; for `COC(=O)C1Cc2ccccc2N1C(=O)C(C)(C)CSC(C)=O` (stereo unspecified), 136 to 138 °C.
On to `CCCCCN1C(=O)C(CCC(=O)O)(NC(=O)c2cc3ccccc3n2CCC#N)c2ccccc21` (stereo unspecified), for which the melting point is 125 °C.
Molecule `CCOC(=O)C1=C(C)Nc2ccnc(OC(C)C)c2C1c1ccccc1Cl` (stereo unspecified) came in with a melting point of 135 to 136 °C.
For `CC(=O)C(=Cc1cc(O)c(O)c(C(F)(F)F)c1)C(C)=O` the value was 198 to 205 °C.
For `CC(=O)OCc1c(C)n(Cc2ccccc2)c2c(OCc3ccc(F)cc3)nncc12`, the melting point lay in the range of 109 to 110 °C.
In the case of `COc1c(C2CCN(CCCCNC(=O)c3ccc(-c4ccc(C#N)s4)nc3)CC2)ccc2c1CCCC2`, the melting point fell in the range of 186 to 188 °C.
With `CC(CCc1cccc(F)c1)NCc1c(CO)ccc(O)c1CO` (stereo unspecified), the melting point lay in the range of 114 to 117 °C.
The molecule `CCC12CC(O)C(O)(c3ccccc3)CC1CC(O)c1cc(O)ccc12` (stereo unspecified) gave a melting point of 185 to 187 °C.
`COc1cc(C)ccc1S(=O)(=O)OCC(=O)c1ccccc1`: the melting point was 89 °C.
In turn, `COC(=O)C(C)c1ccc2cc(OC(=O)COCc3ccccc3)ccc2c1` (stereo unspecified) displayed a melting point of 58 to 60 °C.
For `Cc1cc(C)nc(NC(=O)NS(=O)(=O)c2cccn2CCC#N)n1` the value was 158 to 159 °C; for `Cc1nc[nH]c1CSCCNC1=NC(=O)C(Cc2ccccc2)N1` (stereo unspecified), 104 to 107 °C.
`CN(Cc1ccccc1)Cc1c(-c2ccccc2)sc(N)c1C(=O)c1ccc(Cl)cc1` returned a melting point of 86 to 88 °C.
On to `CCCCCOc1ccc(-c2ccc(-c3ccc(C(=O)OC)cc3)cc2)cc1`, for which the melting point worked out at 248 °C.
For `COC(=O)CCCS(=O)(=O)c1c(Cc2cccc3ccccc23)sc2c1c(=O)n(C)c(=O)n2CC(C)C` the value was 122 to 124 °C; for `COc1ccc(-n2nc(C(F)(F)F)cc2CO)cc1`, 79 °C.
Turning to `CS(=O)(=O)N[C@@H](CCCCNC(=O)OCc1ccccc1)C(=O)O`, the melting point is 83.5 to 84 °C.
Turning to `CCC(C)OC(=O)N1CCC(c2nc3cc(-c4ccc(-n5cnnn5)cc4F)ccc3o2)CC1` (stereo unspecified), the melting point lay within 118 to 122 °C.
`NS(=O)(=O)c1cc2c(Cl)c(N3CCOCC3)ccc2s1`: the melting point was in the range of 195 to 199 °C.
`COC(=O)C1CCN(Cc2ccc(-c3ccc4c(Nc5ccc(Sc6nccn6C)c(Cl)c5)c(C#N)cnc4c3)nc2)CC1` registered a melting point of 135 to 137 °C.
As to `c1ccn(Nc2ncnc3c2ncn3-n2cccc2)c1`, the melting point was 230 to 232 °C.
For `COC(=O)c1ccc(C=Cc2ccc([N+](=O)[O-])c(C#N)c2)cc1` the value was 266 to 269 °C.
Molecule `CCOC(=O)c1cc(OC)c2c(OC(C)C)ccc(Br)c2c1` returned a melting point of 62 °C.
`CCC(=Cc1cn(CC(=O)N(C)CCc2ccccc2)c2ccc(OCc3ccccc3)cc12)C(=O)O` came in with a melting point of 205 to 207 °C.
In turn, `COc1ccc(C(C#N)C(=O)C(=O)C(C#N)c2ccccc2)cc1` (stereo unspecified) showed a melting point of 256 to 258 °C.
Molecule `COc1ccc2cc(C(C)C(=O)ON3CCCCC3)ccc2c1` (stereo unspecified) showed a melting point of 95 to 97 °C.
Regarding `O=C(O)CCc1cnoc1-c1ccc(Cl)c(Cl)c1`, the melting point lay within 171 to 172 °C.
The molecule `CCN(CC)c1ccc(/C=C/c2cc(/C=C/c3ccc4cc[nH]c4c3)[nH]n2)c(OCc2ccccc2)c1` returned a melting point of 78.1 to 80 °C.
In turn, `Cn1cnc(=O)c(-c2cccc(Br)c2)c1` returned a melting point of 120 to 121 °C.
As for `CC(C)CC(NC(=O)O)C(=O)NC(C)(C)C#N` (stereo unspecified), the melting point lay in the range of 166 to 168 °C.
Consider `Cn1nc(-c2ccncc2)c(-c2ccc(Cl)cc2)c1N`, for which the melting point lay within 257 to 258 °C.
Take `CC1(C)CC(OC(=O)CCC(=O)OC2CC(C)(C)NC(C)(C)C2)CC(C)(C)N1`: the melting point was 118 °C.
In turn, `CC(=O)c1cc2c(C(C)=O)c(OCC3CO3)ccc2o1` (stereo unspecified) gave a melting point of 114 °C.
For `Cc1cc(NC(=O)c2cccnc2Cl)[nH]n1` the value was more than 300 °C; for `CC(C)OC(=O)c1cc2c3ccccc3n(Cc3ccccc3)c2s1`, 88 to 89 °C.
`Cc1ccc2c(=O)c(C(=O)O)cn(CCOC=O)c2n1` registered a melting point of 213 to 214 °C.
For the molecule `CC(C)(C)[Si](C)(C)OC1CCN(S(=O)(=O)c2ccc(N3CCCCC3)cc2)C1=S` (stereo unspecified), the melting point lay in the range of 152 to 153 °C.
For `O=S(=O)(CCN1CCC2(CC1)OCc1ccccc12)CCN1CCC2(CC1)OCc1ccccc12` the value was 170 to 172 °C; for `Nc1cc(Br)nc(Br)c1[N+](=O)[O-]`, 140 °C; for `Cc1ccccc1COC1COC(CCl)OC1` (stereo unspecified), 62 to 63 °C.
In the case of `COC(=O)Cn1c(=O)c2ccccc2n(CCCCN2CCC(OC(c3ccccc3)c3ccccc3)CC2)c1=O`, the melting point lay in the range of 91 to 93 °C.
As for `CCc1cc(OC)c(-c2csc(NC(=O)c3cc4ccccc4[nH]3)n2)c(OC)c1`, the melting point is more than 260 °C.
Turning to `COC(=O)c1cccc(C(=O)Nc2ccc(-n3nc(C(F)(F)F)cc3C(F)(F)F)cc2)c1`, the melting point was 174 to 175 °C.
The molecule `COC(=O)C[C@@H](SCc1ccccc1)C(N)=O` registered a melting point of 146 to 149 °C.
Molecule `Cn1c(=O)sc2cc(N3C[C@H](C(=O)NCCO)OC3=O)ccc21` showed a melting point of 217 to 219 °C.
For `CCCCc1oc2ccccc2c1CCc1ccc(OS(=O)(=O)c2ccc(C(=O)O)c(OC(C)=O)c2)cc1` the value was 54 to 57 °C; for `CCCNc1nc(C#N)c(C#N)nc1-c1ccccc1`, 136 to 137 °C; for `CCCCCCCC[C@@H](O)C(=O)Nc1c(SC)ccc2ncccc12`, 119 to 120 °C.
For `O=C1NC(=O)C(c2ccc(Oc3ccccc3)cc2)C(=O)N1` the value was more than 240 °C; for `CCCCOc1ccc(S(=O)(=O)C2(C(=O)NO)CCN(CCOc3ccccc3)CC2)cc1`, 112 °C.
In turn, `CC(C)OC1CC(O)C(=O)N1S(=O)(=O)c1ccccc1` (stereo unspecified) had a melting point of 127 to 129 °C.
`O=c1[nH]c(N2CCN(CCCCN3CCCCC3)CC2)cc2c(Br)cccc12` registered a melting point of 165 to 166 °C.
`CCOC(=O)N1CC[C@H](N(Cc2ccccc2)Cc2ccccc2)[C@H](OC)C1` (relative stereo) showed a melting point of 95.2 °C.
For the molecule `C1CNCCN2CCNCCNCCN(CCN1)CCOCCOCC2`, the melting point came to 75 °C.
On to `CS(=O)(=O)c1ccc(-c2nn(CCCc3ccccc3)c(=O)cc2-c2ccc(Cl)cc2)cc1`, for which the melting point lay in the range of 70.2 to 71.6 °C.
For the molecule `Cc1nc(-c2ccccc2)nc(N2CCN(c3ccc(O)cc3)CC2)c1C`, the melting point worked out at 202 °C.
The molecule `COC(=O)C1CCc2nc(N)sc2C1` (stereo unspecified) yielded a melting point of 148 to 168 °C.
`CC(C)CC(NC(=O)Cc1cccc2ccccc12)C(=O)NC(Cc1ccccc1)C(=O)CSCc1ccco1` (stereo unspecified) yielded a melting point of 143 to 146 °C.
In turn, `N#Cc1cccc(C(=O)c2ccccc2)c1` displayed a melting point of 84 to 85 °C.
For `CCCCCC(C)(C)NC(=O)c1nn(-c2ccc(F)cc2F)c2c1C1CCC2C1` (stereo unspecified), the melting point is 76 to 78 °C.
For `Cc1cc2nc(-c3ccc(F)cc3)cn2nc1Cl` the value was 196 to 198 °C; for `O=[N+]([O-])c1cccc2cc(-c3ccccc3)cnc12`, 112 to 114 °C.
For `Cc1cc(C#N)cc(C(=O)Nc2ccnc(F)c2)n1` the value was 246 °C; for `O=S(c1ccccc1)C1O[C@H](COCc2ccccc2)[C@@H](OCc2ccccc2)[C@H](OCc2ccccc2)[C@H]1OCc1ccccc1` (stereo partly specified), 120 to 122 °C.
Regarding `COc1cccc(COc2ccc(-c3cccc(NC(Cc4ccccc4)C(=O)O)c3)cc2)c1` (stereo unspecified), the melting point is 159 to 162 °C.
Molecule `Cn1cc(Nc2nc(N3CCOCC3)nc(-n3c(C(F)F)nc4ccccc43)n2)cn1` came in with a melting point of 225 to 226 °C.
In turn, `O=C1NC(Cc2ccccc2)C(C(=O)O)O1` (stereo unspecified) had a melting point of 172 to 174 °C.
`O=S(=O)(CCN1CC(c2ccccc2)C(c2ccc(Cl)cc2)=N1)c1cccc(C(F)(F)F)c1` (stereo unspecified) had a melting point of 118 to 119 °C.
`CN(C)c1ccc2nnc(C(=O)O)c(O)c2c1`: the melting point is more than 330 °C.
For `CCc1nc2ccccc2c(=O)n1CCCOc1ccc(SC(C)(C)C(=O)O)cc1` the value was 156 to 158 °C; for `COc1c(NC(=O)c2ccc(-c3ccc(F)cc3)cc2)ccc2cc(CN3CCCC3)cnc12`, 142 to 144 °C.
In turn, `COc1cc(C)c(OC)c(OC)c1-c1csc(NC(=O)c2cc3ccccc3[nH]2)n1` came in with a melting point of 200 °C.
`Cc1cc(Cn2c(-c3ccccc3)nc(Cl)c2C=O)ccc1OCc1ccccc1` gave a melting point of 135 to 136 °C.
With `CC1Cc2ccccc2NC1C1=NCCN1` (stereo unspecified), the melting point lay in the range of 138 to 139 °C.
For `Cc1c(-c2ccc(OCc3ccccc3)cc2)n(Cc2ccc(OCCCCl)cc2)c2ccc(OCc3ccccc3)cc12` the value was 130 to 132 °C; for `Cc1ccsc1C(=O)Nc1ccc(-n2nc(C(F)(F)F)cc2C(F)(F)F)cc1`, 185 to 188 °C.
In turn, `COC(=O)c1ccccc1Oc1ccc(C(F)(F)F)cc1[N+](=O)[O-]` gave a melting point of 69 to 70 °C.
For `CCCc1c(OCCCOc2ccc(C(=O)C(=O)O)cc2)ccc(C(C)=O)c1OC` the value was 94 to 96 °C; for `CC1CNCCC1n1c(=O)[nH]c2cc(Cl)ccc21` (stereo unspecified), 199 °C; for `COC(=O)C1OC(CC(C)C)(c2ccc(Cl)cc2)OC1C(=O)OC` (stereo unspecified), 40 °C.
For `O=C(Nc1c(C(O)(C(F)(F)F)C(F)(F)F)ccc2ccccc12)c1cccs1` the value was 191 to 192 °C; for `Cc1cc(C)nc(NC(=NO)NS(=O)(=O)c2ccccc2Cl)n1`, 165 to 167 °C.
For `CN1C(=O)C(C(=O)Nc2cccc(C(F)(F)F)c2)S(=O)(=O)c2ccc(Cl)cc21` (stereo unspecified) the value was 196 to 200 °C.
